# Laboratory results reported in patent US9944606B2, “Cannabinoid receptor modulators” (Arena Pharmaceuticals, Inc., priority 2009, dated 2018).
# Key:
# [1] = system: streptozotocin-induced painful diabetic peripheral neuropathy; test: Streptozotocin-induced painful diabetic peripheral neuropathy (PDPN) model; type: in vivo, Sprague-Dawley rats; conditions: diabetic allodynic rats, 10 mg/kg orally in 0.5% methylcellulose, 1, 4 and 6 hours post-dosing, FIG. 17 and FIG. 18
# Description: Male Sprague-Dawley rats were injected intraperitoneally with 50 mg/kg of streptozotocin (STZ) in sodium citrate buffer. 10% sucrose water was provided ad libitum for the first 48 hours post-STZ followed by regular drinking water. Rats were monitored once weekly for blood glucose levels and body weights. Development of tactile allodynia over time was analyzed using Von Frey filaments and a 50% withdrawal threshold was determined using Dixon's up-down procedure. […] Tactile allodynia was evaluated at 1, 4 and 6 hours post-dosing.
# [2] = molecular target: hCB1 (Homo sapiens (Human), UniProt P21554); test: Radioligand binding assay, hCB1; conditions: NR = No Response
# [3] = molecular target: human CB2 receptor (Homo sapiens (Human), UniProt P34972); test: Radioligand binding assay ([3H]CP55,940 / [3H]WIN55,212-2), hCB2; conditions: HEK293 membranes expressing human CB2, NR = No Response
# Description: Preparation of Membranes: HEK293 cells stably expressing human CB2 receptor were collected, washed in ice cold PBS, and centrifuged at 48,000×g for 20 min at 4° C. The cell pellet was then collected, resuspended in wash buffer (20 mM HEPES, pH 7.4 and 1 mM EDTA), homogenized on ice using a Brinkman Polytron, and centrifuged at 48,000×g for 20 min at 4° C. The resultant pellet was resuspended in ice cold 20 mM HEPES, pH 7.4, homogenized again on ice, recentrifuged for 20 min at 4° C., and membrane pellets were then stored at −80° C. until needed.
# […] and [^3H]WIN55, 212-2 Radioligand Binding Assays: Radioligand binding assays for human CB2 receptors were performed using two different agonist radioligands, [^3H]CP55,940 and [^3H]WIN55, 212-2 and similar assay conditions. For both assays, nonspecific binding was determined in the presence of 10 μM unlabeled compound. […] Then, 25 μL of BetaScint scintillation cocktail was added to each well, and plates were read in a Packard TopCount scintillation counter.
# [4] = system: paclitaxel-induced allodynia; test: Paclitaxel-induced allodynia in Sprague Dawley rats; type: in vivo; conditions: 10 mg/kg orally, FIG. 3
# Description: Animals: Male Sprague Dawley rats [200-250 g] (Harlan Laboratories Inc., Livermore, Calif.) were housed three per cage and maintained in a humidity-controlled (40-60%) and temperature-controlled (68-72° F.) facility on a 12 h:12 h light/dark cycle (lights on at 6:30 am) with free access to food (Harlan Teklad, Orange, Calif., Rodent Diet 8604) and water. Rats were allowed one week of habituation to the animal facility before starting treatment.
# Induction of Allodynia: Rats were treated intraperitoneally, with 2 mg/kg of paclitaxel (Sigma Aldrich, Saint Louis, Mo.) in 10% Cremophor vehicle (500 μL) on days 0, 2, 4, and 6.
# Clinical scoring: Tactile allodynia was tested using von Frey filaments. Briefly, the von Frey assay was performed using the standardized up down method with von Frey filaments, that determine the tactile sensitivity of the paw. By applying the increasingly or decreasingly thicker filaments to the paw in a logarithmic scale of actual force, a linear scale of perceived intensity is determined
# Drug treatment: Eight days after the start of paclitaxel dosing, a baseline measurement (von Frey assay) was performed prior to dosing of compounds. […] As a positive control, rats were dosed intraperitoneally with 100 mg/kg gabapentin in water. The dosing volume for oral and peritoneal treatment was 500 μL. […]
# [5] = system: MIA model of osteoarthritis; test: MIA model of osteoarthritis pain (von Frey, weight distribution, grip strength); type: in vivo, Sprague Dawley rats; conditions: MIA rats, 3, 10 and 30 mg/kg orally, one hour after dosing, FIG. 2
# Excerpt: Injection of monosodium iodoacetate (MIA) into a joint (Kalbhen, 1987) inhibits the activity of glyceraldehyde-3-phosphate dehydrogenase in chondrocytes, resulting in disruption of glycolysis and eventually in cell death. The progressive loss of chondrocytes results in histological and morphological changes of the articular cartilage, closely resembling those seen in osteoarthritis patients.
# The osteoarthritis was induced in 200 g male Sprague Dawley rats. […]
# Typically during disease progression, there was an inflammation period of 0-7 days post-intra-articular injection followed by progressive degeneration of the cartilage and subchondral bone from days 14-55. […] Tactile allodynia was measured via von Frey assay, hind limb paw weight distribution was monitored using an incapacitence tester (Columbus Instruments, Columbus, Ohio, USA) and hind limb grip strength was measured using a grip strength meter (Columbus Instruments, Columbus, Ohio, USA). […] Hind paw weight distribution was determined by placing rats in a chamber so that each hind paw rests on a separate force plate of the incapacitence tester. The force exerted by each hind limb (measured in grams) is averaged over a 3 second period. Three measurements were taken for each rat, and the change in hind paw weight distribution calculated. […]
# [6] = system: FCA-induced hyperalgesia model of inflammatory pain; test: FCA-induced hyperalgesia in rats; type: in vivo, Sprague Dawley rats; conditions: FCA rats, 0.1, 1, 3, 10 and 30 mg/kg orally, 1 h post dosing, Analgesy-Meter, FIG. 1
# Description: Animal Info: Male Sprague Dawley rats from Harlan (200-225 g when received) were used. Upon arrival, rats were housed 4 per cage in shoe-box polycarbonate cages with wire tops, wood chip bedding and suspended food and water bottles Animals were acclimated for 5-7 days prior to being injected with Freund's complete adjuvant (FCA) (Sigma; catalog #5881).
# Experimental procedure: 2 days (48 h) before testing compounds, baseline readings of all rats were taken right before FCA injection. Rats were then injected with 50 μL FCA containing 1 mg/mL Mtb (Mycobacterium tuberculosis) in right hind footpad under inhalation anesthesia (isoflurane). 48 hours after FCA injection, readings were taken as pre-dosing baseline and then rats were dosed orally with 0.5 mL of vehicle or compound (0.5 mL per 250 g rat). Readings were taken again at 1 h post dosing. All readings were taken with an Analgesy-Meter (Ugo Basile) which measures mechanical hyperalgesia via paw pressure.
# Clinical scoring: FCA-induced hyperalgesia was tested with an Analgesy-Meter. Briefly, the Analgesy Meter applied an increasing pressure to the right hind paw. The paw withdrawal threshold was the pressure leading to withdrawal.
# Meanwhile a group of rats were dosed orally with 50 mg/kg of Diclofenac as a positive control. Readings were taken again at 1 h post dosing. Dosing volume was 500 μL per 250 g rat.
smiles,measurement,setting,value
"CC(C)(C)[C@@H](CO)NC(=O)c1nn(-c2c[n+]([O-])ccn2)c2c1C[C@@H]1C[C@H]21 [Compound 699, (1aS,5aS)-2-(4-Oxy-pyrazin-2-yl)-1a,2,5,5a-tetrahydro-1H-2,3-diaza-cyclopropa[a]pentalene-4-carboxylic Acid ((S)-1-Hydroxymethyl-2,2-dimethyl-propyl)-amide]","analgesic efficacy (tactile allodynia, 50% withdrawal threshold)",[1],robust and sustained analgesic efficacy over 6 hours
CONC(=O)[C@@H](NC(=O)c1nn(-c2c[n+]([O-])ccn2)c2c1C[C@H]1C[C@@H]21)C(C)(C)C [Compound 755],Ki,[2],1200 nM
same,Ki,[3],3.8 nM
"CC(C)(CO)NC(=O)c1nn(-c2ccc(F)cc2F)c2c1C[C@H]1C[C@@H]21 [Compound 493, (1aR,5aR)-2-(2,4-Difluoro-phenyl)-1a,2,5,5a-tetrahydro-1H-2,3-diaza-cyclopropa[a]pentalene-4-carboxylic Acid (2-Hydroxy-1,1-dimethyl-ethyl)-amide]",time of maximum efficacy post-dosing,[4]; time course,1 h
same,"paw withdrawal threshold (PWT) in comparison with vehicle and gabapentin, therapeutic efficacy","[4]; von Frey 30, 60 and 180 minutes after dosing",increase in paw withdrawal threshold (PWT)
same,"paw withdrawal threshold (PWT) in comparison with vehicle, therapeutic efficacy",[5],Increase in paw withdrawal threshold (PWT)
same,"paw withdrawal threshold (PWT) in comparison with vehicle, therapeutic efficacy",[6],increase in paw withdrawal threshold (PWT)
"CC(C)(NC(=O)c1nn(-c2c[n+]([O-])ccn2)c2c1C[C@@H]1C[C@H]21)C(F)(F)F [Compound 919, (1aS,5aS)-2-(4-Oxy-pyrazin-2-yl)-1a,2,5,5a-tetrahydro-1H-2,3-diaza-cyclopropa[a]pentalene-4-carboxylic acid (2,2,2-trifluoro-1,1-dimethyl-ethyl)-amide]","analgesic efficacy (tactile allodynia, 50% withdrawal threshold)",[1],robust and sustained analgesic efficacy over 6 hours
CNC(=O)[C@@H](NC(=O)c1nn(-c2c[n+]([O-])ccn2)c2c1C[C@@H]1C[C@H]21)C(C)(C)C [Compound 701],Ki,[2],105 nM
